Source: patent US11446287B2, “Compounds and methods for EP300 or CBP modulation and indications therefor” (Opna Immuno-Oncology SA, priority 2019, dated 2022)

Biological target: T1, Recombinant human CBP containing the bromodomain (CBP-BD (1043-1159)) (Homo sapiens, UniProt Q92793)
T1 construct: Recombinant human CBP bromodomain (CBP-BD (1043-1159)); made in house; host or cells: E. coli BL21-CodonPlus (DE3), modified pET vector
Assay: CBP Alphascreen binding assay
Conditions: read-out: CREBBP (CBP) IC50
Outline: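 Buffer: 50 mM HEPES pH 7.5, 50 mM NaCl, 0.01% BSA, 0.01% Triton X-100, 2 mM DTT. The signal was normalised to plate controls and fitted with a four-parameter curve to give IC50.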

T1 sequence (Q92793 1081-1197): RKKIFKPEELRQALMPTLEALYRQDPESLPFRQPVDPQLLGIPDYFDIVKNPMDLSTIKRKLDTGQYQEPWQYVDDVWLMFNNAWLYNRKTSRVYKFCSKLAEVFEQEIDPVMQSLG

Compound | IC50
Cc1noc(C)c1-c1cnc2c(c1)c(-c1ccc(C(=O)O)cc1Cl)cn2C(c1ccccn1)C1CCCC1 (stereo not drawn) [P-0027, 3-chloro-4-(1-(cyclopentyl(pyridin-2-yl)methyl)-5-(3,5-dimethylisoxazol-4-yl)-1H-pyrrolo[2,3-b]pyridin-3-yl)benzoic acid] | 0.0001 to 1 µM
Cc1cc(-c2cn(C(c3ccccn3)C3CCCC3)c3ncc(-c4c(C)noc4C)cc23)ccc1C(=O)O (stereo not drawn) [P-0028, 4-(1-(cyclopentyl(pyridin-2-yl)methyl)-5-(3,5-dimethylisoxazol-4-yl)-1H-pyrrolo[2,3-b]pyridin-3-yl)-2-methylbenzoic acid] | 0.0001 to 1 µM
Cc1noc(C)c1-c1cnc2c(c1)c(-c1ccc(C(=O)O)c(C(F)(F)F)c1)cn2C(c1ccccn1)C1CCCC1 (stereo not drawn) [P-0029, 4-(1-(cyclopentyl(pyridin-2-yl)methyl)-5-(3,5-dimethylisoxazol-4-yl)-1H-pyrrolo[2,3-b]pyridin-3-yl)-2-(trifluoromethyl)benzoic acid] | 0.0001 to 1 µM
Cc1noc(C)c1-c1cnc2c(c1)c(-c1ccc(C(=O)O)c(O)c1)cn2C(c1ccccn1)C1CCCC1 (stereo not drawn) [P-0030, 4-(1-(cyclopentyl(pyridin-2-yl)methyl)-5-(3,5-dimethylisoxazol-4-yl)-1H-pyrrolo[2,3-b]pyridin-3-yl)-2-hydroxybenzoic acid] | 1 to 8 µM
Cc1noc(C)c1-c1cnc2c(c1)c(-c1ccc(CC(=O)O)cc1)cn2C(c1ccccn1)C1CCCC1 (stereo not drawn) [P-0031, 2-(4-(1-(cyclopentyl(pyridin-2-yl)methyl)-5-(3,5-dimethylisoxazol-4-yl)-1H-pyrrolo[2,3-b]pyridin-3-yl)phenyl)acetic acid] | 0.0001 to 1 µM
Cc1noc(C)c1-c1cnc2c(c1)c(-c1ccc(C(C)(C)C(=O)O)cc1)cn2C(c1ccccn1)C1CCCC1 (stereo not drawn) [P-0032, 2-(4-(1-(cyclopentyl(pyridin-2-yl)methyl)-5-(3,5-dimethylisoxazol-4-yl)-1H-pyrrolo[2,3-b]pyridin-3-yl)phenyl)-2-methylpropanoic acid] | 0.0001 to 1 µM
Cc1noc(C)c1-c1cnc2c(c1)c(-c1ccc(C3(C(=O)O)CC3)cc1)cn2C(c1ccccn1)C1CCCC1 (stereo not drawn) [P-0033, 1-(4-(1-(cyclopentyl(pyridin-2-yl)methyl)-5-(3,5-dimethylisoxazol-4-yl)-1H-pyrrolo[2,3-b]pyridin-3-yl)phenyl)cyclopropane-1-carboxylic acid] | 0.0001 to 1 µM
Cc1noc(C)c1-c1cnc2c(c1)c(-c1ccc(C(F)(F)C(=O)O)cc1)cn2C(c1ccccn1)C1CCCC1 (stereo not drawn) [P-0034, 2-(4-(1-(cyclopentyl(pyridin-2-yl)methyl)-5-(3,5-dimethylisoxazol-4-yl)-1H-pyrrolo[2,3-b]pyridin-3-yl)phenyl)-2,2-difluoroacetic acid] | 0.0001 to 1 µM
COc1ncccc1-n1cc(-c2ccc(C(=O)O)cc2OC(F)(F)F)c2cc(-c3c(C)noc3C)cnc21 [P-0316, 4-(5-(3,5-dimethylisoxazol-4-yl)-1-(2-methoxypyridin-3-yl)-1H-pyrrolo[2,3-b]pyridin-3-yl)-3-(trifluoromethoxy)benzoic acid] | 0.0001 to 1 µM
Cc1ncccc1-n1cc(-c2ccc(C(=O)O)cc2OC(F)(F)F)c2cc(-c3c(C)noc3C)cnc21 [P-0317, 4-(5-(3,5-dimethylisoxazol-4-yl)-1-(2-methylpyridin-3-yl)-1H-pyrrolo[2,3-b]pyridin-3-yl)-3-(trifluoromethoxy)benzoic acid] | 0.0001 to 1 µM
Cc1noc(C)c1-c1cnc2c(c1)c(-c1ccc(C(=O)O)cc1OC(F)(F)F)cn2-c1cnn(C)c1 [P-0318, 4-(5-(3,5-dimethylisoxazol-4-yl)-1-(1-methyl-1H-pyrazol-4-yl)-1H-pyrrolo[2,3-b]pyridin-3-yl)-3-(trifluoromethoxy)benzoic acid] | 0.0001 to 1 µM
Cc1noc(C)c1-c1cnc2c(c1)c(-c1ccc(C(=O)O)cc1OC(F)(F)F)cn2-c1cncnc1 [P-0319, 4-(5-(3,5-dimethylisoxazol-4-yl)-1-(pyrimidin-5-yl)-1H-pyrrolo[2,3-b]pyridin-3-yl)-3-(trifluoromethoxy)benzoic acid] | 0.0001 to 1 µM
